# Test system: yeast genes (level of expressed mRNA)
# Assay: DNA chip analysis of expressed mRNA of yeast genes after 2 h culture with a toxic chemical substance
# Format: cell-based, Saccharomyces cerevisiae S288C
# Conditions: for The level of expressed mRNA in the presence of chemical substance/ (ratio to absence of chemical substance): stress protein genes, DNA chip
# Method in brief: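 S. cerevisiae S288C in YPD at 25 °C was exposed at log phase for 2 h to a growth-inhibiting, non-lethal concentration of the chemical. Poly(A) mRNA was reverse-transcribed with Cy3- or Cy5-dUTP and hybridized to a whole-genome yeast DNA chip (65 °C, >12 h). Values are fluorescence ratios versus untreated cells.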
smiles,measurement,setting,value
"CCCCC[C@H](O)CC(=O)CCc1ccc(O)c(OC)c1 [(13), gingerol]",The level of expressed mRNA in the presence of chemical substance/The level of expressed mRNA in the absence of chemical substance,yeast gene YIL140W,0.5
same,"The level of expressed mRNA in the presence of chemical substance/ (in its absence), gene YJL070C","yeast gene YJL070C, ratio of DNA chip fluorescence intensity to that without chemical substance",1.8
same,The level of expressed mRNA in the presence of chemical substance/The level of expressed mRNA in the absence of chemical substance,yeast gene YJL073W,1.6
same,The level of expressed mRNA in the presence of chemical substance/The level of expressed mRNA in the absence of chemical substance,yeast gene YJL089W,1.8
same,"The level of expressed mRNA in the presence of chemical substance/ (ratio to absence), gene YJL096W","yeast gene YJL096W, mitochondria-located protein genes, 2 h culture with chemical",0.7
same,The level of expressed mRNA in the presence of chemical substance/The level of expressed mRNA in the absence of chemical substance,yeast gene YJL116C,4.3
same,The level of expressed mRNA in the presence of chemical substance/ (ratio to absence of chemical substance),yeast gene YJL158C,0.4
same,"The level of expressed mRNA in the presence of chemical substance/ (in its absence), gene YJL167W","yeast gene YJL167W, ratio of DNA chip fluorescence intensity to that without chemical substance",0.9
same,"The level of expressed mRNA in the presence of chemical substance/ (ratio to absence), gene YJL180C","yeast gene YJL180C, mitochondria-located protein genes, 2 h culture with chemical",1.2
same,"The level of expressed mRNA in the presence of chemical substance/ (in its absence), gene YJL216C","yeast gene YJL216C, ratio of DNA chip fluorescence intensity to that without chemical substance",1.1
same,The level of expressed mRNA in the presence of chemical substance/The level of expressed mRNA in the absence of chemical substance,yeast gene YJR004C,0.3
same,The level of expressed mRNA in the presence of chemical substance/The level of expressed mRNA in the absence of chemical substance,yeast gene YJR086W,0.9
same,The level of expressed mRNA in the presence of chemical substance/ (ratio to absence of chemical substance),yeast gene YJR090C,2.2
same,The level of expressed mRNA in the presence of chemical substance/The level of expressed mRNA in the absence of chemical substance,yeast gene YKL008C,1.7
same,The level of expressed mRNA in the presence of chemical substance/The level of expressed mRNA in the absence of chemical substance,yeast gene YKL013C,1.3
same,The level of expressed mRNA in the presence of chemical substance/The level of expressed mRNA in the absence of chemical substance,yeast gene YKL039W,1.9
same,The level of expressed mRNA in the presence of chemical substance/The level of expressed mRNA in the absence of chemical substance,yeast gene YKL041W,1.3
same,The level of expressed mRNA in the presence of chemical substance/The level of expressed mRNA in the absence of chemical substance,yeast gene YKL096W,0.1
same,The level of expressed mRNA in the presence of chemical substance/ (ratio to absence of chemical substance),yeast gene YKL164C,0.9
same,The level of expressed mRNA in the presence of chemical substance/The level of expressed mRNA in the absence of chemical substance,yeast gene YKL165C,3.2
same,The level of expressed mRNA in the presence of chemical substance/The level of expressed mRNA in the absence of chemical substance,yeast gene YKL193C,2.1
same,"The level of expressed mRNA in the presence of chemical substance/ (in its absence), gene YKR009C","yeast gene YKR009C, ratio of DNA chip fluorescence intensity to that without chemical substance",1.8
same,"The level of expressed mRNA in the presence of chemical substance/ (in its absence), gene YKR034W","yeast gene YKR034W, ratio of DNA chip fluorescence intensity to that without chemical substance",1.2
same,The level of expressed mRNA in the presence of chemical substance/ (ratio to absence of chemical substance),yeast gene YKR053C,0.7
same,"The level of expressed mRNA in the presence of chemical substance/ in its absence, gene YKR058W","yeast gene YKR058W, energy system protein genes, 2 h culture with the chemical, ratio to control without chemical",0.7
same,"The level of expressed mRNA in the presence of chemical substance/ (in its absence), gene YLR006C","yeast gene YLR006C, ratio of DNA chip fluorescence intensity to that without chemical substance",0.8
same,The level of expressed mRNA in the presence of chemical substance/ (ratio to absence of chemical substance),yeast gene YLR006C,0.8
same,The level of expressed mRNA in the presence of chemical substance/The level of expressed mRNA in the absence of chemical substance,yeast gene YLR120C,4.8
same,The level of expressed mRNA in the presence of chemical substance/The level of expressed mRNA in the absence of chemical substance,yeast gene YLR136C,2.9
same,The level of expressed mRNA in the presence of chemical substance/The level of expressed mRNA in the absence of chemical substance,yeast gene YLR178C,7.5
same,The level of expressed mRNA in the presence of chemical substance/The level of expressed mRNA in the absence of chemical substance,yeast gene YLR250W,1.2
same,"The level of expressed mRNA in the presence of chemical substance/ in its absence, gene YLR295C","yeast gene YLR295C, energy system protein genes, 2 h culture with the chemical, ratio to control without chemical",0.8
same,"The level of expressed mRNA in the presence of chemical substance/ (ratio to absence), gene YLR295C","yeast gene YLR295C, mitochondria-located protein genes, 2 h culture with chemical",0.8
same,The level of expressed mRNA in the presence of chemical substance/The level of expressed mRNA in the absence of chemical substance,yeast gene YLR327C,2.8
same,"The level of expressed mRNA in the presence of chemical substance/ (in its absence), gene YLR351C","yeast gene YLR351C, ratio of DNA chip fluorescence intensity to that without chemical substance",0.9
same,The level of expressed mRNA in the presence of chemical substance/The level of expressed mRNA in the absence of chemical substance,yeast gene YLR356W,2.5
same,The level of expressed mRNA in the presence of chemical substance/The level of expressed mRNA in the absence of chemical substance,yeast gene YLR362W,2.4
same,"The level of expressed mRNA in the presence of chemical substance/ (in its absence), gene YLR375W","yeast gene YLR375W, ratio of DNA chip fluorescence intensity to that without chemical substance",1.6
same,The level of expressed mRNA in the presence of chemical substance/The level of expressed mRNA in the absence of chemical substance,yeast gene YLR391W,0.9
same,The level of expressed mRNA in the presence of chemical substance/The level of expressed mRNA in the absence of chemical substance,yeast gene YLR429W,2.3
same,"The level of expressed mRNA in the presence of chemical substance/ in its absence, gene YML129C","yeast gene YML129C, energy system protein genes, 2 h culture with the chemical, ratio to control without chemical",1.0
same,"The level of expressed mRNA in the presence of chemical substance/ (ratio to absence), gene YML129C","yeast gene YML129C, mitochondria-located protein genes, 2 h culture with chemical",1.0
same,The level of expressed mRNA in the presence of chemical substance/The level of expressed mRNA in the absence of chemical substance,yeast gene YMR004W,2.2
same,"The level of expressed mRNA in the presence of chemical substance/ (ratio to absence), gene YMR023C","yeast gene YMR023C, mitochondria-located protein genes, 2 h culture with chemical",1.1
same,The level of expressed mRNA in the presence of chemical substance/The level of expressed mRNA in the absence of chemical substance,yeast gene YMR094W,1.4
same,The level of expressed mRNA in the presence of chemical substance/The level of expressed mRNA in the absence of chemical substance,yeast gene YMR104C,1.5
same,The level of expressed mRNA in the presence of chemical substance/ (ratio to absence of chemical substance),yeast gene YMR186W,2.4
same,The level of expressed mRNA in the presence of chemical substance/The level of expressed mRNA in the absence of chemical substance,yeast gene YMR219W,2.1
same,The level of expressed mRNA in the presence of chemical substance/The level of expressed mRNA in the absence of chemical substance,yeast gene YMR226C,1.6
same,"The level of expressed mRNA in the presence of chemical substance/ in its absence, gene YMR267W","yeast gene YMR267W, energy system protein genes, 2 h culture with the chemical, ratio to control without chemical",0.7
same,"The level of expressed mRNA in the presence of chemical substance/ (ratio to absence), gene YMR267W","yeast gene YMR267W, mitochondria-located protein genes, 2 h culture with chemical",0.7
same,"The level of expressed mRNA in the presence of chemical substance/ in its absence, gene YMR267W","yeast gene YMR267W, ratio of DNA chip fluorescence intensity to that without chemical substance",0.7
same,The level of expressed mRNA in the presence of chemical substance/The level of expressed mRNA in the absence of chemical substance,yeast gene YMR275C,2.1
same,The level of expressed mRNA in the presence of chemical substance/The level of expressed mRNA in the absence of chemical substance,yeast gene YMR276W,1.9
same,"The level of expressed mRNA in the presence of chemical substance/ (in its absence), gene YMR278W","yeast gene YMR278W, ratio of DNA chip fluorescence intensity to that without chemical substance",2.5
same,"The level of expressed mRNA in the presence of chemical substance/ (in its absence), gene YMR293C","yeast gene YMR293C, ratio of DNA chip fluorescence intensity to that without chemical substance",0.8
same,The level of expressed mRNA in the presence of chemical substance/The level of expressed mRNA in the absence of chemical substance,yeast gene YMR314W,2.6
